Data: paper PMC6002460, “Pharmacological evaluation of new constituents of “Spice”: synthetic cannabinoids based on indole, indazole, benzimidazole and carbazole scaffolds” (Forensic Toxicology, 2018)
Read-outs that look alike come from different tables or passages of the source.

Legend:
human CB1 receptor [1] = target: T1, human CB1 receptor (Homo sapiens, UniProt P21554); assay: biochemical; type: binding; settings: [3H]CP55,940 0.1 nM, CHO cell membranes; read-out: Ki ± SEM Human CB1
T1 construct: expressed in transfected cells; host or cells: CHO cells (membrane preparations)
T1 sequence (P21554 whole entry): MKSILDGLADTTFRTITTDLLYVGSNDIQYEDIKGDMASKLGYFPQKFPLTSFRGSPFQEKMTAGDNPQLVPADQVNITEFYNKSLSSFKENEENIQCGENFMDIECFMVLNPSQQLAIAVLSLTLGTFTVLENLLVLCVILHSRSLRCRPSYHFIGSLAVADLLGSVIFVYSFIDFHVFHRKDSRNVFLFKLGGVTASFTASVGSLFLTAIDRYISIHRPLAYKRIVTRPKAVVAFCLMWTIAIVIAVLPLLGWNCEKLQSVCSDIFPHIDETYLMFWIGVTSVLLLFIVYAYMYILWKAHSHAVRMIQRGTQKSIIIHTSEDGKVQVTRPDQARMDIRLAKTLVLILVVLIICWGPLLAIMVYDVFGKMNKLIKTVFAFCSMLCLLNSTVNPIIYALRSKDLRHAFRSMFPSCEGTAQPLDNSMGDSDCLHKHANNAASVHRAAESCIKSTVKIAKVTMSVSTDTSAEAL

human CB2 receptor [2] = target: T2, human CB2 receptor (Homo sapiens, UniProt P34972); assay: biochemical; type: binding; settings: [3H]CP55,940 0.1 nM, CHO cell membranes; read-out: Ki ± SEM Human CB2
T2 construct: expressed in transfected cells; host or cells: CHO cells (membrane preparations)
T2 sequence (P34972 whole entry): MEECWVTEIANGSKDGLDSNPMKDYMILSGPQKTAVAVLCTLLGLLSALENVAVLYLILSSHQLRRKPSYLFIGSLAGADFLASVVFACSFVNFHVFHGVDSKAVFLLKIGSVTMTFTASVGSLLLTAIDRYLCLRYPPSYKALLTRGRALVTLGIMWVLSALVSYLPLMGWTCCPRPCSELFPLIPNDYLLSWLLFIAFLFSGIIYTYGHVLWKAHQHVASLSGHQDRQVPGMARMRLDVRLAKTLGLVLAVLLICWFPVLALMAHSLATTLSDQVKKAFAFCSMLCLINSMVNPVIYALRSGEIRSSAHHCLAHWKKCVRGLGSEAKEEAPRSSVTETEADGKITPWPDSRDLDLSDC

human GPR55 = target: T3, human GPR55 (Homo sapiens, UniProt Q9Y2T6); assay: β-Arrestin PathHunter assay, recombinant CHO cells expressing GPR55; type: cell-based; settings: for Human GPR55 % activation: agonist mode; for Human GPR55 % activation / Human GPR55 % inhibition: value in parentheses; for Human GPR55 % inhibition: antagonist mode versus LPI 1 µM
T3 construct: host or cells: CHO cells
T3 sequence (Q9Y2T6 whole entry): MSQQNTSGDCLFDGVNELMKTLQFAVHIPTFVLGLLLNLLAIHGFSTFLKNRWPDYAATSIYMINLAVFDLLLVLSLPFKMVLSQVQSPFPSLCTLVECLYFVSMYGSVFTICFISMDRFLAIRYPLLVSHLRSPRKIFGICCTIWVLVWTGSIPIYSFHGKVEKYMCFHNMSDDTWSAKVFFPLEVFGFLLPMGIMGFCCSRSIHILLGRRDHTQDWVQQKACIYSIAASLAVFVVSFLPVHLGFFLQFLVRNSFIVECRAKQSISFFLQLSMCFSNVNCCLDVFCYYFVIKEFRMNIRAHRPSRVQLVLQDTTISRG
Method: (§1) β-Arrestin assays were performed in recombinant CHO cells expressing either the human GPR18 or the human GPR55 as described before using the β-galactosidase enzyme fragment complementation technology (β-arrestin PathHunter™ assay; DiscoverX, Fremont, CA, USA).
(§2) The orphan receptors GPR18 and GPR55 can interact with certain natural and synthetic cannabinoids. […] Therefore, we investigated the new series of indole, indazole, benzimidazole and carbazole-derived structures in β-arrestin assays at GPR18 and GPR55 (Table 2). […] For the lipophilic substitutions, the following rank order of potency was observed: ethyl > methyl > chloro > fluoro. Therefore, it can be concluded that a lipophilic substitution in position 4 of the naphthyl residue was a requirement for GPR55 inhibition.

human GPR18 = target: T4, human GPR18 (Homo sapiens, UniProt Q14330); assay: β-Arrestin PathHunter assay, recombinant CHO cells expressing GPR18; type: cell-based; settings: for Human GPR18 % activation: agonist mode; for Human GPR18 % activation / Human GPR18 % inhibition: value in parentheses; for Human GPR18 % inhibition: antagonist mode
T4 construct: host or cells: CHO cells
T4 sequence (Q14330 1-331): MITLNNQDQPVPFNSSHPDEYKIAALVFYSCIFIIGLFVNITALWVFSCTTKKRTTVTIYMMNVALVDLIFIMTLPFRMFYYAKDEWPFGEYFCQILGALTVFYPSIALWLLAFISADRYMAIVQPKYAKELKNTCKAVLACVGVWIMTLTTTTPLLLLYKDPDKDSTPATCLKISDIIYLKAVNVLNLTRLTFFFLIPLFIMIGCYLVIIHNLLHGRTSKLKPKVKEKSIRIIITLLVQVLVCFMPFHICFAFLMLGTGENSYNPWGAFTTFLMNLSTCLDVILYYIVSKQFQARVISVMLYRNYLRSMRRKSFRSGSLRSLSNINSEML
Method: as §1, §2

CB1 receptor = settings: membrane potential assay, cited from earlier work
CB2 receptor = settings: membrane potential assay, cited from earlier work
human CB1 receptor [3] = target: T1, human CB1 receptor; assay: cAMP accumulation assay, CHO cells stably expressing CB1; type: cell-based; settings: compound at 10 µM; normalized to CP55,940 (1 µM)
Method: (§3) cAMP accumulation assays were performed also as previously described. Briefly, CHO cells stably expressing the respective human CB receptor subtype CB1 or CB2 were seeded overnight. […] After incubation for 15 min the buffer was removed, and the cells were lyzed. The amount of cAMP was determined in a radioligand binding assay by incubating 50 µL of the cell lysate with 3 nM [^3H]cAMP in the presence of protein preparations from bovine adrenal glands (cAMP binding protein). Bound and unbound radioligand were separated by rapid filtration through GF/B filters, and radioactivity was determined by liquid scintillation counting. To test for antagonistic activity, test compounds were added to Hank’s buffered salt solution (HBSS) containing 10% dimethyl sulfoxide (DMSO), 10 min after the application of Ro-20-1724, and the mixture was incubated for 20 min at 37 °C.
(§4) As a next step, we investigated the compounds in cAMP accumulation assays, to obtain information on their functionality (Fig. 3). CB receptors are Gi protein-coupled and thus reduce the levels of cAMP in the cells upon activation.

human CB2 receptor [4] = target: T2, human CB2 receptor; assay: cAMP accumulation assay, CHO cells stably expressing CB2; type: cell-based; settings: compound at 10 µM; normalized to CP55,940 (1 µM)
Method: as §3, §4

COC(=O)[C@@H](NC(=O)c1nn(CCCCCF)c2ccccc12)C(C)C [compound 8, 5F-AMB]
Ki (human CB1 receptor [1]): 1.13 ± 0.48 nM
Ki (human CB2 receptor [2]): 1.38 ± 0.22 nM
EC50 (human GPR55): > 10 µM
IC50 (human GPR55): > 10 µM
Human GPR55 % activation (human GPR55): 14%
EC50 (human GPR18): > 10 µM
IC50 (human GPR18): > 10 µM
Human GPR18 % activation (human GPR18): 1%
EC50 (CB1 receptor; ref Banister et al. [38]): 1.9 nM
EC50 (CB2 receptor; ref Banister et al. [38]): 10 nM

COC(=O)[C@@H](NC(=O)c1nn(Cc2ccc(F)cc2)c2ccccc12)C(C)C [compound 9, FUB-AMB]
Ki (human CB1 receptor [1]): 0.387 ± 0.135 nM
Ki (human CB2 receptor [2]): 0.536 ± 0.115 nM
EC50 (human GPR55): > 10 µM
IC50 (human GPR55): > 10 µM
Human GPR55 % activation (human GPR55): 4%
Human GPR55 % inhibition (human GPR55): 17%
EC50 (human GPR18): > 10 µM
IC50 (human GPR18): > 10 µM
Human GPR18 % inhibition (human GPR18): 11%
EC50 (CB1 receptor; ref Banister et al. [38]): 2 nM
EC50 (CB2 receptor; ref Banister et al. [38]): 18 nM

COC(=O)[C@@H](NC(=O)c1nn(CC2CCCCC2)c2ccccc12)C(C)C [compound 10]
Ki (human CB1 receptor [1]): 0.339 ± 0.073 nM
Ki (human CB2 receptor [2]): 0.301 ± 0.092 nM
EC50 (human GPR55): > 10 µM
IC50 (human GPR55): > 10 µM
Human GPR55 % activation (human GPR55): 2%
Human GPR55 % inhibition (human GPR55): 31%
EC50 (human GPR18): > 10 µM
IC50 (human GPR18): > 10 µM
Human GPR18 % activation (human GPR18): 19%
Human GPR18 % inhibition (human GPR18): > 10 (10%)
EC50 (CB1 receptor; ref Banister et al. [38]): 5.1 nM
EC50 (CB2 receptor; ref Banister et al. [38]): 29 nM

COC(=O)[C@@H](NC(=O)c1nn(CCCCCF)c2ccccc12)C(C)(C)C [compound 11, 5F-ADB]
Ki (human CB1 receptor [1]): 23.3 ± 10.2 nM
Ki (human CB2 receptor [2]): 5.99 ± 2.47 nM
CB1 receptor activation in cAMP accumulation assay (in words) (human CB1 receptor [3]): partial activation
CB2 receptor activation in cAMP accumulation assay (in words) (human CB2 receptor [4]): full agonists
EC50 (human GPR55): > 10 µM
IC50 (human GPR55): > 10 µM
Human GPR55 % activation (human GPR55): 0%
Human GPR55 % inhibition (human GPR55): 6%
EC50 (human GPR18): > 10 µM
IC50 (human GPR18): > 10 µM
Human GPR18 % activation (human GPR18): > 10 (10%)
EC50 (CB1 receptor; ref Banister et al. [38]): 0.59 nM
EC50 (CB2 receptor; ref Banister et al. [38]): 7.5 nM

COC(=O)[C@@H](NC(=O)c1cn(CC2CCCCC2)c2ccccc12)C(C)(C)C [compound 13, MDMB-CHMICA]
Ki (human CB1 receptor [1]): 0.41 ± 0.141 nM
Ki (human CB2 receptor [2]): 0.354 ± 0.05 nM
EC50 (human GPR55): > 10 µM
IC50 (human GPR55): > 10 µM
Human GPR55 % activation (human GPR55): 5%
Human GPR55 % inhibition (human GPR55): 38%
EC50 (human GPR18): > 10 µM
IC50 (human GPR18): 14.1 ± 3.1 µM
Human GPR18 % activation (human GPR18): 5%
EC50 (CB1 receptor; ref Banister et al. [38]): 10 nM
EC50 (CB2 receptor; ref Banister et al. [38]): 71 nM

COC(=O)[C@@H](NC(=O)c1nn(CC2CCCCC2)c2ccccc12)C(C)(C)C [compound 14]
Ki (human CB1 receptor [1]): 0.135 ± 0.028 nM
Ki (human CB2 receptor [2]): 0.222 ± 0.034 nM
EC50 (human GPR55): > 10 µM
IC50 (human GPR55): 10.3 ± 1.7 µM
EC50 (human GPR18): > 10 µM
IC50 (human GPR18): ~10 µM
Human GPR18 % activation (human GPR18): 27%
Human GPR18 % inhibition (human GPR18): 51%
EC50 (CB1 receptor; ref Banister et al. [38]): 10 nM
EC50 (CB2 receptor; ref Banister et al. [38]): 128 nM

CC(C)[C@H](NC(=O)c1cn(CCCCCF)c2ccccc12)C(N)=O [compound 15, 5F-AB-PICA]
Ki (human CB1 receptor [1]): 35 ± 7.7 nM
Ki (human CB2 receptor [2]): 89 ± 33.2 nM
EC50 (human GPR55): > 10 µM
IC50 (human GPR55): > 10 µM
Human GPR55 % activation (human GPR55): > 10 (10%)
EC50 (human GPR18): > 10 µM
IC50 (human GPR18): > 10 µM
Human GPR18 % activation (human GPR18): 23%
EC50 (CB1 receptor; ref Banister et al. [42]): 5.2 nM
EC50 (CB2 receptor; ref Banister et al. [42]): 8.9 nM

CC(C)[C@H](NC(=O)c1nn(CCCCCF)c2ccccc12)C(N)=O [compound 16, 5F-AB-PINACA]
Ki (human CB1 receptor [1]): 4.96 ± 1.37 nM
Ki (human CB2 receptor [2]): 3.77 ± 0.25 nM
EC50 (human GPR55): > 10 µM
IC50 (human GPR55): > 10 µM
Human GPR55 % activation (human GPR55): 15%
EC50 (human GPR18): > 10 µM
IC50 (human GPR18): > 10 µM
Human GPR18 % activation (human GPR18): 12%
Human GPR18 % inhibition (human GPR18): > 10 (10%)
EC50 (CB1 receptor; ref Banister et al. [42]): 0.48 nM
EC50 (CB2 receptor; ref Banister et al. [42]): 2.6 nM
